Assay [1] deals with human non-small cell lung tumor cell line (A549) xenotopic tumor. The assay can be described thus: Vascular cast micro-CT analysis of blood vessel diameter distribution in xenotopic tumor model. The class given is in vivo, mice (SCID). The note with it: 0.5 mg/kg i.p., vascular casts. On the procedure: (§1) A tumor model can be generated by inoculating human non-small cell lung tumor cell line (A549 from ATCC, Inc.) subcutaneously in immunodeficient mice (SCID). SCID male mice (6-8 weeks old from Charles River Inc.) are inoculated subcutaneously in the lower back with a suspension of 1×10^6 human lung tumor cells (A549) in 0.2 ml of PBS. All mice are fed normal chow diet throughout the duration of the experiment. All mice weights are measured throughout the experiment. Tumor size is measured with calipers twice-a-week and tumor volume is calculated using the formula Length^2×Width×0.52. All mice are randomized into two treatment groups (approximately 10 mice per group) when the median tumor volume reaches approximately 500 mm^3. The treatment groups can be treated according to the following schedule using intraperitoneal (i.p.) administration of either a control composition or an anti-angiogenic compound. For example, different levels of an anti-angiogenic compound can be used and the results compared to a control group that is not treated with an anti-angiogenic compound (e.g., Avastin® available from Genentech, South San Francisco, Calif.). For example:
At the end-point, all mice are anesthetized and systemically perfused with a casting agent.
Perfusion with a casting agent, Mercox (available from Ladd Research, Williston, Vt.) can be performed as follows. An initial anticoagulation step for each animal is performed using an i.v. injection of heparin (10,000 U/ml, 0.3 cc/mouse). After 30 minutes, the animals are anesthetized. Each animal's heart is cannulated and the animal perfused with warm physiological saline at physiological pressure (with an open vein draining the organ or with an open vena cava). Perfusion is continued until the organ or animal is clear of blood. Mercox monomer is filtered through a 0.5 μm filter and a casting resin is prepared by mixing 8 ml Mercox, 2 ml methylmethacrylate, and 0.3 ml catalyst. The resin is infused through the same cannula until the onset of polymerization (the resin changes color to brown and emits heat, ˜10 min). The organ or animal is carefully immersed in a 60° C. water bath for 2 hours (or overnight in a sealed container). […] The resulting cast can be analyzed to identify one or more structural characteristics of interest.
(§2) Xenotopic mouse models obtained as described in Example 2 were treated with either a control solution of saline/PBS or an anti-angiogenic preparation of Avastin® at 0.5 mg/kg/i.p. as described above. At the end-point, vascular casts were prepared as described in Example 3 above and analyzed for two treated mice (both treated with Avastin® at 0.5 mg/kg/i.p.) and one control mouse. […]

For assay [2] the test system is unchanged. The assay can be described thus: Tumor volume in xenotopic tumor model (caliper measurement). The following applies: 0.5 mg/kg i.p. twice a week; end-point 1.5 weeks after initial treatment; vs saline/PBS control. It counts as in vivo, mice (SCID). On the procedure:
as §1, with “For example, different levels of an anti-angiogenic compound can be used and the results compared to a control group that is not treated with an anti-angiogenic compound (e.g., Avastin® available from Genentech, South San Francisco, Calif.). For example:” left out
as §2

As for “Avastin®: known monoclonal antibody against vascular endothelial growth factor (VEGF), angiogenesis inhibitor available from Genentech”, in assay [1] (treated vs control animals), the “Vessel population ratio between large (approximately 147-161 μm) and middle (approximately 33-77 μm) size vessels (FIG. 3)” value is given as “decreased”; the “Vessel population ratio between small (approximately 21-35 μm) and middle (approximately 35-49 μm) size vessels (FIG. 2)” value is “decreased”. Further, the “Percentage of middle diameter sized vessels in treated tumors vs untreated tumors (FIG. 1)” value in assay [1] (two treated mice vs one control mouse) was “higher percentage”. Moreover, the “Reduction in small diameter sized vessels in treated tumors vs untreated tumors (FIG. 1)” value in assay [1] (two treated mice vs one control mouse, bins 13.8 μm wide) was determined as 20%. Moreover, the “Mean tumor volumes, treated vs control group at the end of the experiment” value in assay [2] is “did not differ significantly”.

Values taken from patent publication US20090328239A1, “BLOOD VESSEL IMAGING AND USES THEREFOR” (Bio Tree Systems, Inc., priority 2006, published 2009).
